Each structure is given as a SMILES string.

In general, melting point refers to the temperature of the solid-liquid transition. Molecule `CCCn1c(=O)n(C2OC(CO)C(O)C2O)c2nc(N)[nH]c(=O)c21` (centres undefined) came in with a melting point of 151 to 153 °C.
The molecule `O=[N+]([O-])c1ccc(F)c(-n2nc3c(c2Cl)CCCC3)c1` showed a melting point of 109 °C.
Under `O=[N+]([O-])c1cnc2ccc(SC(F)F)cc2c1-c1ccccc1` stands 101 to 103 °C; under `Cc1cccc(C(=O)NCN2CCN(c3ncccc3C#N)CC2)c1`, 128 to 130 °C; under `CCCCCCCN(CCN1CCN(CCSc2nc3ncccc3o2)CC1)C(=O)Nc1c(C(C)C)cc(O)cc1C(C)C`, 100 to 102 °C.
The same measure for `CCOCOC1CCC2(C)C(=CCC3C2CCC2(C)C(C(C)CCCC(C)C)CCC32)C1` (centres undefined): 64 to 66 °C; for `Cc1ccc(Cl)c(C(=O)c2ccc(Cl)cc2)c1`: 85 to 90 °C.
The same measure for `Cc1cccc(NC(=O)c2cc(C(F)(F)F)nn2-c2ccccc2Cl)c1NC(=O)C(C)C`: 215 to 220 °C.
Molecule `COCCCS(=O)(=O)NC(=O)/C=C/c1cc(OCC2CC2)nn1Cc1ccc(C(F)(F)F)cc1Cl` displayed a melting point of 137 to 138 °C.
The same measure for `COC[C@H]1C[C@H]1c1ccccc1` (relative stereo): 46 to 50 °C.
The molecule `CCOC(=O)CNC(=O)c1cn2nc(NCCCN3CCC(OC(c4ccccc4)c4ccccc4)CC3)ccc2n1` yielded a melting point of 172 to 174 °C.
Under `OC1CSC(Oc2cncc(-c3ccc(Cl)nc3)c2)C(O)C1O` (centres undefined) stands 211 °C; under `NC(=O)c1cc(OCCNCC(O)c2ccco2)ccc1O` (centres undefined), 169 to 171 °C; under `CNC(=O)c1cnn(-c2ccccc2)c1C#N`, 203 to 205 °C.
The same measure for `Nc1ccc2ccc(Oc3ccc(F)cc3)nc2n1`: 210 °C; for `CC(=O)N1CCCCc2ccc(C(=O)CCCl)cc21`: 106 to 107 °C.
In turn, `Cc1cccc(CC(Nc2ccccc2)C(=O)NC(C#N)COCc2cccc(-c3nnn[nH]3)c2)c1` (centres undefined) yielded a melting point of 120 to 122 °C.
As to `O=C(CCc1ccc2cc(F)ccc2n1)NO`, the melting point is 208 to 210 °C.
Under `O=C1Cc2c(cccc2N(CCN(Cc2ccccc2)C(=O)C(F)(F)F)C(=O)C(F)(F)F)N1` stands 108 to 111 °C; under `CCCCOc1ccc(-c2nc(CCOS(=O)(=O)c3ccc(C)cc3)c(C)o2)cc1`, 84.9 °C.
Under `CCOC(=O)CCC1CCCN2CCc3c([nH]c4ccccc34)C12` (centres undefined) stands 72 to 74 °C; under `Cc1cc(-c2cnn3c(C(F)(F)F)cc(-c4ccc(Br)cc4)nc23)cc(C)n1`, 258 °C.
The same measure for `Cc1oc(Cl)cc1C(=O)O`: 126 to 127 °C.
In the case of `Nc1nc2c(c(Nc3cccc(Br)c3)n1)-c1ccccc1C2`, the melting point lay in the range of 233 to 236 °C.
The same measure for `CCCCCCCc1ccc(-c2ccc(OC)cc2)nc1`: 54.4 to 56.5 °C; for `Nc1c(F)c(F)c(OC(F)F)c2c1c(=O)c(C(=O)O)cn2C1CC1`: 284 to 286 °C.
Under `Cc1cccc(NC(=O)NCC(=O)Nc2ccccc2C(=O)c2cccs2)c1` stands 208 to 210 °C.
The same measure for `COCCC1(C(=O)N[C@@H](Cc2ccc(NC(=O)c3cc(C#N)ccc3Cl)cc2)C(=O)OC)CCCC1`: 172 to 175 °C.
`Cc1ccc(C#N)c(OCc2ccc(OCc3nc(-c4ccccc4)oc3C)cc2)n1` registered a melting point of 116 to 117 °C.
The same measure for `Cn1c([N+](=O)[O-])cnc1CS(=O)(=O)c1ccccn1`: 187 °C; for `COc1c(NC(=O)c2ccc(Br)cc2)ccc2cc(CO)cnc12`: 185 to 187 °C; for `Nc1c(CC(=O)O)cccc1Oc1ccc(Cl)cc1Cl`: 123 to 124 °C.
Molecule `CCCCc1ccc(OC)c(-c2csc(NC(=O)c3ccc(C(=O)N4CCC(N5CCC(NC(=O)CC)C5)CC4)cc3)n2)c1` (centres undefined) yielded a melting point of 128 °C.
The same measure for `N#Cc1cc(-c2ccc(C(F)(F)F)cc2)ccc1-n1cc(-c2cc(F)cc(F)c2)nn1`: 229 to 230 °C.

(Values after a melting point compilation (Tetko et al.; mined from patent text by program, amines drawn as free bases though some values may be those of a salt).)
